Laboratory results as given in patent publication US20220184020A1, “Polyphenols as Modulators of Platelet Function” (Northeastern University, priority 2019, published 2022).

Legend:
platelets [1] = assay: Integrin αIIbβ3 activation (fibrinogen binding); type: cell-based, human; conditions: in response to U46619; RA pre-treatment 1 hour
Description: To validate the predictive power of the developed framework, direct experimental evidence of the predicted mechanistic role of Rosmarinic acid (RA) in VD was sought. […] Therefore, whether RA influenced platelet activation in vitro was evaluated. As platelets can be stimulated through different activation pathways, RA effects can, in principle, occur in any of them. To test these different possibilities, platelets were pretreated with RA and then activated with: 1) glycoprotein VI by collagen or collagen-related peptide (Collagen/CRPXL); 2) protease-activated receptors-1,4 by thrombin receptor activator peptide-6 (TRAP-6); 3) prostanoid thromboxane receptor by the thromboxane A2 analogue (U46619); and 4) P2Y1/12 receptor stimulation by adenosine diphosphate (ADP). When the network distance between each stimulant receptor and the RA-VD-platelet module (FIG. 11A) was compared, it was observed that the receptors for Collagen/CRPXL, TRAP-6, and U46619 are closer than the random expectation, while the receptor for ADP is more distant (FIG. 11B). It is expected that platelets would be most affected by RA when treated with stimulants whose receptors are most proximal to the RA-VD-platelet module, i.e. Collagen/CRPXL, TRAP-6, and U46619. […] Percent-positive cells were determined by gating on fluorescence intensity compared to unstimulated samples.

[2] = rat models of ischemia/reperfusion injury; cited from earlier work
platelets [3] = assay: Platelet aggregation by turbidimetric aggregometry; type: cell-based, human; conditions: PRP pre-treated with RA for 1 hour; collagen 1 μg/mL
Description: To validate the predictive power of the developed framework, direct experimental evidence of the predicted mechanistic role of Rosmarinic acid (RA) in VD was sought. […] Therefore, whether RA influenced platelet activation in vitro was evaluated. As platelets can be stimulated through different activation pathways, RA effects can, in principle, occur in any of them. To test these different possibilities, platelets were pretreated with RA and then activated with: 1) glycoprotein VI by collagen or collagen-related peptide (Collagen/CRPXL); 2) protease-activated receptors-1,4 by thrombin receptor activator peptide-6 (TRAP-6); 3) prostanoid thromboxane receptor by the thromboxane A2 analogue (U46619); and 4) P2Y1/12 receptor stimulation by adenosine diphosphate (ADP). […] Platelet aggregation was measured by turbidimetric aggregometry. […] Platelet aggregation was monitored for 6 minutes at 37° C. with a stir speed of 1000 rpm and the maximum extend of aggregation recorded using AGGRO/LINK®8 software. In some cases, dense granule release was simultaneously recorded by supplementing samples with Chrono-Lume® (Chrono-Log®, 395) according to the manufacturer's instructions.

MCF7 cell line = conditions: MCF7 after treatment with RA; versus all other genes; cited from earlier work

**Q.** What does the source list for `O=C(/C=C/c1ccc(O)c(O)c1)O[C@H](Cc1ccc(O)c(O)c1)C(=O)O` [rosmarinic acid]?
**A.** integrin αIIbβ3 activation (platelets [1]): dampened; cardiac function [2]: restore cardiac function; collagen-mediated platelet aggregation (platelets [3]): inhibits; perturbation scores for genes directly regulated by NFE2L2 (MCF7 cell line): higher perturbation scores
